Assay results published in paper PMC6540907, “The nuclear export inhibitor aminoratjadone is a potent effector in extracellular-targeted drug conjugates” (Chemical Science, 2019).
pIC50: −log10 of the molar value. Several values for one entry are separate records, joined by “and”; a condition that tells them apart may be missing. Identical values can stand only once. Like-named read-outs stand apart in the source and are kept apart here.

How the values were obtained:
A-549 = assay: cells; assay type: cell-based, human
Description: (§1) Biological evaluation of the compounds […]
(§2) serial dilutions of the test compound were given to 120 µL of suspended cells (50.000/mL) in wells of 96-well plates. After 5 days of incubation growth inhibition (IC50) was determined using an MTT assay.9
(§3) Table S1:Medium conditions for different cell types.
(§4) Cell type Medium Additives
(§5) L-929 (DSMZ ACC 2) DME medium (high glucose) (Gibco) 10% fetal calf serum (Gibco) SKOV-3 DSMZ ATCC HTB Mc Coys-Medium (Gibco) 10% fetal calf serum (Gibco) […]
(§6) A549 (DSMZ ACC 107) DME medium (high glucose) (Gibco) 10% fetal calf serum (Gibco)

KB-3.1 = assay: cells; assay type: cell-based, human
Description: as §1, §2, §3, §4, §5, §6

MCF-7 = assay: cells; assay type: cell-based, human
Description: as §1, §2, §3, §4, §5, §6

SK-OV-3 = assay: cells; assay type: cell-based, human; conditions: Homo sapiens, SK-OV-3, read-out: Antiproliferative activity IC50
Description: as §1, §2, §3, §4, §5, §6

L-929 = assay: Cell proliferation assay (MTT, 5 days); assay type: cell-based, murine
Description: as §1, §2, §3, §4, §5
A549 (DSMZ ACC 107) DME medium (high glucose) (Gibco) 10% fetal calf serum (Gibco) KB 3.1 (DSMZ ACC 158) DME medium (high glucose) (Gibco) 10% fetal calf serum (Gibco) Ratjadone Compound Antiproliferative activity IC50 [nM]
KB-3.1: human cervix carcinoma, KB-V1: multi-drug-resistant human cervix carcinoma, K-562: human chronic myelogenous leukemia cell, PC-3: human prostate carcinoma, L-929: murine fibroblast
Figure S8: Structures of Ratjadone A-D and their antiproliferative activity (IC50 values in nM). Data published by Köster et al.10

CRM1 = CRM1 (Homo sapiens, UniProt O14980); assay: Nuclear export inhibition, fluorescent translocation biosensor in recombinant HeLa cells; assay type: cell-based; design: This cellular assay uses HeLa cells that express a recombinant fusion protein; endogenous in cells; host or cells: HeLa cells stably expressing the NLS-GST-GFP-RevNES translocation biosensor (HeLaRevBio); conditions: nuclear export inhibition IC50, HeLa cells expressing translocation biosensor, 1 h incubation
KB-3.1 cancer cells = assay: Cell proliferation assay under folate free conditions (MTT); assay type: cell-based, human; conditions: KB-3.1, folate receptor-positive, read-out: Antiproliferative activity IC50 of folate-ratjadone conjugates
Description: Cell proliferation assay under folate free conditions
KB 3.1 (DSMZ ACC 158) cells were cultivated at 37 °C and 10 % CO2 in RMPI-medium without folic acid (Gibco) with 10% fetal calf serum (Gibco). 120 µL of suspended cells (100.000/mL) were seeded in wells of 96-well plates and after 24 h at 37 °C and 10 % CO2 the medium was removed, the cells were washed with PBS and RPMI-medium without folic acid (Gibco) + 10% dialyzed fetal calf serum (Sigma) were added to the cells, before after additional 24 h at 37°C and 10 % CO2 60 µL of serial dilutions of the test compound were given to cells. After 1, 2 and 5 days of incubation growth inhibition (IC50) was determined using an […]

[1] = Homo sapiens, A549, read-out: Antiproliferative activity IC50, A-549 human lung carcinoma
[2] = Homo sapiens, KB 3-1, read-out: Antiproliferative activity IC50, KB-3.1 human cervix carcinoma
[3] = Homo sapiens, MCF7, read-out: Antiproliferative activity IC50, MCF-7 human breast carcinoma
[4] = Mus musculus, L929, read-out: Antiproliferative activity IC50, L-929 murine fibroblast
[5] = read-out: Antiproliferative activity IC50, L-929 murine fibroblast
[6] = KB 3-1, KB-3.1 human cervix carcinoma, read-out: Antiproliferative activity IC50
[7] = L-929 murine fibroblast, read-out: Antiproliferative activity IC50
[8] = Mus musculus, L929, L-929 murine fibroblast, read-out: Antiproliferative activity IC50

CRM1, sequence (O14980 whole entry, the tested form may be a part): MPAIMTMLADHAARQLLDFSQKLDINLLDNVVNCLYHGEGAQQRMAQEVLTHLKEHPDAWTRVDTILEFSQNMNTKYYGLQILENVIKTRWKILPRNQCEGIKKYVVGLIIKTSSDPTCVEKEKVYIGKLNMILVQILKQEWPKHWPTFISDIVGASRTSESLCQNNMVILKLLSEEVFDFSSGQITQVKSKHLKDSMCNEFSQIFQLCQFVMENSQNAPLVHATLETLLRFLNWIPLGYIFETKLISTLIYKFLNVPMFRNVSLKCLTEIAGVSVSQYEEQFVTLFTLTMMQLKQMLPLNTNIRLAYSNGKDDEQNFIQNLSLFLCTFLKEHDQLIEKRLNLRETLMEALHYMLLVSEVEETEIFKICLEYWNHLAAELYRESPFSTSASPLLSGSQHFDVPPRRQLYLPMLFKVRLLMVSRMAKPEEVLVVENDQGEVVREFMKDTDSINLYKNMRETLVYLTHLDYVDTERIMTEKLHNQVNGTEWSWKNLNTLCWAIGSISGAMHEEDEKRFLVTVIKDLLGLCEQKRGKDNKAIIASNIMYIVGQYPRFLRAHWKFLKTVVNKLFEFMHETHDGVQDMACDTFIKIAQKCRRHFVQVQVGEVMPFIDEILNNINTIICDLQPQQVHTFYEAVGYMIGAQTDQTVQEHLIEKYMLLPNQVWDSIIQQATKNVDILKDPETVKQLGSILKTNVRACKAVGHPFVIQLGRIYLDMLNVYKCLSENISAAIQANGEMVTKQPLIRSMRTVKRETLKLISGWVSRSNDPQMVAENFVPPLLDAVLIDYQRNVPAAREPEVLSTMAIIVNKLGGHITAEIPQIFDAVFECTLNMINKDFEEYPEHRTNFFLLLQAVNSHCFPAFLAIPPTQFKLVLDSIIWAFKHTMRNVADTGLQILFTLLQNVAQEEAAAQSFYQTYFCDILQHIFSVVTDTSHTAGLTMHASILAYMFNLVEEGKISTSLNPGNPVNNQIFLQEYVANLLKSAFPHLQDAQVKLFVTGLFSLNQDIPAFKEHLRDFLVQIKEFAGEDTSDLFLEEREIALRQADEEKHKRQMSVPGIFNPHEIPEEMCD

Row | SMILES | pIC50 (A-549; [1]) | pIC50 (KB-3.1; [2]) | pIC50 (MCF-7; [3]) | pIC50 (SK-OV-3) | pIC50 (CRM1) | further results
1 | C/C=C/[C@@H]1O[C@H](C(=O)/C=C/C=C(\C)C[C@@H](C)/C=C(C)\C=C\[C@H]2CC=CC(=O)O2)C[C@@H](O)[C@@H]1C [Compound 13, 16-oxoratjadone] | 8.75 | 8.59 | 9.66 | 9.62 | 7.28 | pIC50 (L-929; [4]): 7.90; pIC50 (L-929; [5]): 7.90
2 | C/C=C/[C@@H]1O[C@H]([C@H](O)/C=C/C=C(\C)C[C@@H](C)/C=C(C)\C=C\[C@H]2CC=CC(=O)O2)CC(=O)[C@@H]1C [Compound 14, 19-oxoratjadone] | 10.00 | 9.44 | 9.32 | 9.80 | 7.88 | pIC50 (L-929; [4]): 8.94
3 | C/C=C/[C@@H]1O[C@H](C(=O)/C=C/C=C(\C)C[C@@H](C)/C=C(C)\C=C\[C@H]2CC=CC(=O)O2)CC(=O)[C@@H]1C [Compound 15, 16,19-dioxoratjadone] | 8.01 | 8.40 | 8.54 | 8.80 | 7.76 | pIC50 (L-929; [4]): 7.61
4 | C/C=C/[C@@H]1O[C@H]([C@H](N)/C=C/C=C(\C)C[C@@H](C)/C=C(C)\C=C\[C@H]2CC=CC(=O)O2)C[C@@H](O)[C@@H]1C [Compound 16, 16R-aminoratjadone] | 9.51 | 9.41 | 9.59 | 9.21 | 8.57 | pIC50 (L-929; [4]): 8.34
5 | C/C=C/[C@@H]1O[C@H]([C@@H](N)/C=C/C=C(\C)C[C@@H](C)/C=C(C)\C=C\[C@H]2CC=CC(=O)O2)C[C@@H](O)[C@@H]1C [Compound 17, 16S-aminoratjadone] | 8.88 | 8.80 | 9.44 | 9.09 | 8.55 | pIC50 (L-929; [4]): 7.55; pIC50 (L-929; [5]): 7.55
6 | C/C=C/[C@@H]1O[C@H]([C@H](N)/C=C/C=C(\C)C[C@@H](C)/C=C(C)\C=C\[C@H](O)CC(N)CC(=O)OC)C[C@@H](O)[C@@H]1C (stereo partly shown) [Compound 18] |  |  |  |  |  | pIC50 (KB-3.1; [6]): 6.94; pIC50 (L-929; [7]): 5.48; pIC50 (L-929; [8]): 5.48
7 | C/C=C/[C@@H]1O[C@H]([C@@H](N)/C=C/C=C(\C)C[C@@H](C)/C=C(C)\C=C\[C@H](O)CC(N)CC(=O)OC)C[C@@H](O)[C@@H]1C (stereo partly shown) [Compound 19] |  |  |  |  |  | pIC50 (KB-3.1; [6]): 6.78; pIC50 (L-929; [7]): 5.88; pIC50 (L-929; [8]): 5.88
8 | C#CCCC(=O)N[C@H](/C=C/C=C(\C)C[C@@H](C)/C=C(C)\C=C\[C@H]1CC=CC(=O)O1)[C@@H]1C[C@@H](O)[C@H](C)[C@H](/C=C/C)O1 [Compound 20] | 9.24 | 8.98 | 9.40 | 9.36 | 7.63 | 
9 | C#CCCOC(=O)N[C@@H](/C=C/C=C(\C)C[C@@H](C)/C=C(C)\C=C\[C@H]1CC=CC(=O)O1)[C@@H]1C[C@@H](O)[C@H](C)[C@H](/C=C/C)O1 [Compound 22] | 8.61 | 8.91 | 9.21 | 8.92 | 7.92 | 
10 | CC=CC1OC(C(C=CC=C(C)CC(C)C=C(C)C=CC2CC=CC(=O)O2)NC(=O)OCc2ccc(NC(=O)C(CCCNC(N)=O)NC(=O)C(NC(=O)OCC3C4CCC#CCCC43)C(C)C)cc2)CC(O)C1C (stereo not drawn) [Compound 25, BCN-O(CO)HN-Val-Cit-pABO(CO)-16R-Aminoratjadone] | 7.40 | 7.60 | 7.69 | 7.46 | 6.61 and 6.46 | pIC50 (A-549; read-out: Antiproliferative activity IC50, A-549 human lung carcinoma): 7.40; pIC50 (KB-3.1; read-out: Antiproliferative activity IC50, KB-3.1 human cervix carcinoma): 7.60; pIC50 (MCF-7; read-out: Antiproliferative activity IC50, MCF-7 human breast carcinoma): 7.69
11 | C/C=C/[C@@H]1O[C@H]([C@@H](/C=C/C=C(\C)C[C@@H](C)/C=C(C)\C=C\[C@H]2CC=CC(=O)O2)NC(=O)CCSSc2ccccn2)C[C@@H](O)[C@@H]1C [Compound 31, 2-PySS(CH2)2(CO)-16R-Aminoratjadone] | 7.51 | 8.06 | 7.59 | 7.61 | 7.36 | 
12 | C/C=C/[C@@H]1O[C@H]([C@H](O)/C=C/C=C(\C)C[C@@H](C)/C=C(C)\C=C\[C@H]2CC=CC(=O)O2)CC(N)[C@@H]1C (stereo partly shown) [Compound 33, 19-aminoratjadone] | 8.36 | 8.18 | 8.68 | 8.85 | 7.15 | 
13 | C#CCNC1C[C@@H]([C@H](O)/C=C/C=C(\C)C[C@@H](C)/C=C(C)\C=C\[C@H]2CC=CC(=O)O2)O[C@@H](/C=C/C)[C@H]1C (stereo partly shown) [Compound 35, N-Propargyl-19-aminoratjadone] | 8.95 | 8.91 | 8.88 | 8.58 | 7.74 | 
14 | C/C=C/[C@@H]1O[C@H]([C@@H](/C=C/C=C(\C)C[C@@H](C)/C=C(C)\C=C\[C@H]2CC=CC(=O)O2)NC(=O)OCc2ccc(NC(=O)[C@H](CCCNC(N)=O)NC(=O)[C@@H](NC(=O)OC[C@@H]3[C@@H]4CCc5nnn(CCC[C@H](NC(=O)CC[C@H](NC(=O)c6ccc(NCc7cnc8nc(N)nc(O)c8n7)cc6)C(=O)O)C(=O)N[C@H](CCCCN)C(=O)O)c5CC[C@@H]43)C(C)C)cc2)C[C@@H](O)[C@@H]1C [FA-9-Val-Cit-pABA-16R-aminoratjadone] |  |  |  |  |  | pIC50 (KB-3.1 cancer cells): 7.29
15 | C/C=C/[C@@H]1O[C@H]([C@@H](/C=C/C=C(\C)C[C@@H](C)/C=C(C)\C=C\[C@H]2CC=CC(=O)O2)NC(=O)OCc2ccc(NC(=O)[C@H](CCCNC(N)=O)NC(=O)[C@@H](NC(=O)OCC3C4CCc5nnn(CCC[C@H](NC(=O)[C@@H](CC(=O)O)NC(=O)[C@@H](CC(=O)O)NC(=O)[C@@H](CC(=O)O)NC(=O)CC[C@H](NC(=O)c6ccc(NCc7cnc8nc(N)nc(O)c8n7)cc6)C(=O)O)C(=O)N[C@H](CC(=O)O)C(=O)N[C@H](CC(=O)O)C(=O)N[C@H](CCCCN)C(=O)O)c5CCC43)C(C)C)cc2)C[C@@H](O)[C@@H]1C (stereo partly drawn) [FA-10-Val-Cit-pABA-16R-aminoratjadone] |  |  |  |  |  | pIC50 (KB-3.1 cancer cells): 7.45
16 | C/C=C/[C@@H]1O[C@H]([C@@H](/C=C/C=C(\C)C[C@@H](C)/C=C(C)\C=C\[C@H]2CC=CC(=O)O2)NC(=O)OCc2ccc(NC(=O)[C@H](CCCNC(N)=O)NC(=O)[C@@H](NC(=O)OCC3C4CCc5nnn(CCC[C@H](NC(=O)[C@@H](CC(=O)O)NC(=O)[C@@H](CC(=O)O)NC(=O)[C@H](CCCn6nnc7c6CCC6C(CC7)C6COC(=O)N[C@H](C(=O)N[C@@H](CCCNC(N)=O)C(=O)Nc6ccc(COC(=O)N[C@H](/C=C/C=C(\C)C[C@@H](C)/C=C(C)\C=C\[C@H]7CC=CC(=O)O7)[C@@H]7C[C@@H](O)[C@H](C)[C@H](/C=C/C)O7)cc6)C(C)C)NC(=O)[C@@H](CC(=O)O)NC(=O)[C@@H](CC(=O)O)NC(=O)[C@H](CCCn6nnc7c6CCC6C(CC7)C6COC(=O)N[C@H](C(=O)N[C@@H](CCCNC(N)=O)C(=O)Nc6ccc(COC(=O)N[C@H](/C=C/C=C(\C)C[C@@H](C)/C=C(C)\C=C\[C@H]7CC=CC(=O)O7)[C@@H]7C[C@@H](O)[C@H](C)[C@H](/C=C/C)O7)cc6)C(C)C)NC(=O)[C@@H](CC(=O)O)NC(=O)[C@@H](CC(=O)O)NC(=O)CC[C@H](NC(=O)c6ccc(NCc7cnc8nc(N)nc(O)c8n7)cc6)C(=O)O)C(=O)O)c5CCC43)C(C)C)cc2)C[C@@H](O)[C@@H]1C (stereo partly drawn) [FA-11-(Val-Cit-pABA-16R-aminoratjadone)3] |  |  |  |  |  | pIC50 (KB-3.1 cancer cells): 7.35
17 | C/C=C/[C@@H]1O[C@H]([C@@H](/C=C/C=C(\C)C[C@@H](C)/C=C(C)\C=C\[C@H]2CC=CC(=O)O2)NC(=O)CCSSC[C@H](NC(=O)CC[C@H](NC(=O)c2ccc(NCc3cnc4nc(N)nc(O)c4n3)cc2)C(=O)O)C(=O)O)C[C@@H](O)[C@@H]1C [FA-SS-16R-aminoratjadone] |  |  |  |  |  | pIC50 (KB-3.1 cancer cells; listed as FA-SS-16R-Aminoratjadone): 6.53; pIC50 (KB-3.1 cancer cells): 6.53
